Assay results from patent publication US20200079765A1, “SUBSTITUTED HETEROARYL PYRROLONES AND SALTS THEREOF AND USE THEREOF AS HERBICIDAL ACTIVE SUBSTANCES” (Bayer CropScience Aktiengesellschaft, priority 2016, published 2020).

Tests used:
Format in all cases: in vivo
Veronica persica [1] = assay: Pre-emergence herbicidal action (Experimental Part 1, B); settings: application rate 1280 g/ha, scored visually after about 3 weeks
Outline: (§1)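 Visual percentage scores (100% = plants died, 0% = like untreated controls) taken about 3 weeks after treatment. Compounds as WP or EC in water with 0.5% additive were applied at 600 l/ha onto soil covering freshly sown seeds, at rates of 1280 g/ha or 320 g/ha.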

Echinochloa crus-galli [2] = assay: as above; settings: application rate 1280 g/ha, scored visually after about 3 weeks
Outline: as §1

Stellaria media [3] = assay: as above; settings: scored visually after about 3 weeks
Outline: as §1

Ipomoea purpurea [4] = assay: as above; settings: application rate 1280 g/ha, scored visually after about 3 weeks
Outline: as §1

Lolium rigidum = assay: as above; settings: application rate 1280 g/ha, scored visually after about 3 weeks
Outline: as §1

Setaria viridis [5] = assay: as above; settings: scored visually after about 3 weeks
Outline: as §1

Abutilon theophrasti [6] = assay: as above; settings: scored visually after about 3 weeks
Outline: as §1

Amaranthus retroflexus [7] = assay: as above; settings: scored visually after about 3 weeks
Outline: as §1

Matricaria inodora [8] = assay: as above; settings: scored visually after about 3 weeks
Outline: as §1

Polygonum convolvulus [9] = assay: as above; settings: scored visually after about 3 weeks
Outline: as §1

Hordeum murinum [10] = assay: as above; settings: scored visually after about 3 weeks
Outline: as §1

Viola tricolor [11] = assay: as above; settings: scored visually after about 3 weeks
Outline: as §1

Avena fatua [12] = assay: as above; settings: scored visually after about 3 weeks
Outline: as §1

Alopecurus myosuroides [13] = assay: as above; settings: scored visually after about 3 weeks
Outline: as §1

Veronica persica [14] = assay: Post-emergence herbicidal action (Experimental Part 1, A); settings: application rate 1280 g/ha, about 3 weeks after treatment, 100% = plants have died, 0% = like control plants
Protocol: (§2) Seeds of monocotyledonous and dicotyledonous weeds and crop plants were placed in sandy loam in plastic or wood-fiber pots, covered with soil and cultivated in a greenhouse under controlled growth conditions. 2 to 3 weeks after sowing, the test plants were treated at the one-leaf stage. The compounds of the invention, formulated in the form of wettable powders (WP) or as emulsion concentrates (EC), were then sprayed onto the green parts of the plants as aqueous suspension or emulsion with addition of 0.5% additive at a water application rate of 600 l/ha (converted). After the test plants had been kept in the greenhouse under optimum growth conditions for about 3 weeks, the activity of the preparations was rated visually in comparison to untreated controls. For example, 100% activity=the plants have died, 0% activity=like control plants. Tables A1 to A14 below show the effects of selected compounds of the general formula (I) according to Tables I.1 to I.116 on various harmful plants and an application rate corresponding to 1280 g/ha or 320 g/ha, which were obtained by the experimental procedure mentioned above.

Echinochloa crus-galli [15] = assay: as above; settings: about 3 weeks after treatment, 100% = plants have died, 0% = like control plants
Protocol: as §2

Stellaria media [16] = assay: as above; settings: rated visually after about 3 weeks
Protocol: as §2

Ipomoea purpurea [17] = assay: as above; settings: rated visually after about 3 weeks
Protocol: as §2

Setaria viridis [18] = assay: as above; settings: about 3 weeks after treatment, 100% = plants have died, 0% = like control plants
Protocol: as §2

Abutilon theophrasti [19] = assay: as above; settings: about 3 weeks after treatment, 100% = plants have died, 0% = like control plants
Protocol: as §2

Amaranthus retroflexus [20] = assay: as above; settings: about 3 weeks after treatment, 100% = plants have died, 0% = like control plants
Protocol: as §2

Matricaria inodora [21] = assay: as above; settings: rated visually after about 3 weeks
Protocol: as §2

Polygonum convolvulus [22] = assay: as above; settings: rated visually after about 3 weeks
Protocol: as §2

Hordeum murinum [23] = assay: as above; settings: application rate 1280 g/ha, rated visually after about 3 weeks
Protocol: as §2

Viola tricolor [24] = assay: as above; settings: rated visually after about 3 weeks
Protocol: as §2

Avena fatua [25] = assay: as above; settings: rated visually after about 3 weeks
Protocol: as §2

Alopecurus myosuroides [26] = assay: as above; settings: about 3 weeks after treatment, 100% = plants have died, 0% = like control plants
Protocol: as §2

SMILES: CC1=CC(=O)N(c2cc(C(C)(C)C)on2)C1O (stereo not drawn) [I.1-162, 5-Hydroxy-4-methyl-1-(5-tert-butyl-1,2-isoxazol-3-yl)-1,5-dihydro-2H-pyrrol-2-one]
- Veronica persica, herbicidal activity (Veronica persica [1]): 100%
- Echinochloa crus-galli, herbicidal activity (Echinochloa crus-galli [2]): 100%
- Stellaria media, herbicidal activity (Stellaria media [3]; application rate 320 g/ha): 100%
- Stellaria media, herbicidal activity (Stellaria media [3]; application rate 1280 g/ha): 100%
- Ipomoea purpurea, herbicidal activity (Ipomoea purpurea [4]): 100%
- Lolium rigidum, herbicidal activity (Lolium rigidum): 100%
- Setaria viridis, herbicidal activity (Setaria viridis [5]; application rate 320 g/ha): 100%
- Setaria viridis, herbicidal activity (Setaria viridis [5]; application rate 1280 g/ha): 100%
- Abutilon theophrasti, herbicidal activity (Abutilon theophrasti [6]; application rate 320 g/ha): 100%
- Abutilon theophrasti, herbicidal activity (Abutilon theophrasti [6]; application rate 1280 g/ha): 100%
- Amaranthus retroflexus, herbicidal activity (Amaranthus retroflexus [7]; application rate 320 g/ha): 100%
- Amaranthus retroflexus, herbicidal activity (Amaranthus retroflexus [7]; application rate 1280 g/ha): 100%
- Matricaria inodora, herbicidal activity (Matricaria inodora [8]; application rate 320 g/ha): 100%
- Matricaria inodora, herbicidal activity (Matricaria inodora [8]; application rate 1280 g/ha): 100%
- Polygonum convolvulus, herbicidal activity (Polygonum convolvulus [9]; application rate 320 g/ha): 100%
- Polygonum convolvulus, herbicidal activity (Polygonum convolvulus [9]; application rate 1280 g/ha): 100%
- Hordeum murinum, herbicidal activity (Hordeum murinum [10]; application rate 320 g/ha): 90%
- Hordeum murinum, herbicidal activity (Hordeum murinum [10]; application rate 1280 g/ha): 100%
- Viola tricolor, herbicidal activity (Viola tricolor [11]; application rate 320 g/ha): 100%
- Viola tricolor, herbicidal activity (Viola tricolor [11]; application rate 1280 g/ha): 100%
- Avena fatua, herbicidal activity (Avena fatua [12]; application rate 320 g/ha): 90%
- Avena fatua, herbicidal activity (Avena fatua [12]; application rate 1280 g/ha): 100%
- Alopecurus myosuroides, herbicidal activity (Alopecurus myosuroides [13]; application rate 320 g/ha): 90%
- Alopecurus myosuroides, herbicidal activity (Alopecurus myosuroides [13]; application rate 1280 g/ha): 100%
- herbicidal activity on Veronica persica (visual rating vs untreated controls) (Veronica persica [14]): 100%
- herbicidal activity on Echinochloa crus-galli (visual rating vs untreated controls) (Echinochloa crus-galli [15]; application rate 320 g/ha): 100%
- herbicidal activity on Echinochloa crus-galli (visual rating vs untreated controls) (Echinochloa crus-galli [15]; application rate 1280 g/ha): 100%
- Stellaria media, herbicidal activity (Stellaria media [16]; application rate 320 g/ha): 100%
- Stellaria media, herbicidal activity (Stellaria media [16]; application rate 1280 g/ha): 100%
- Ipomoea purpurea, herbicidal activity (Ipomoea purpurea [17]; application rate 320 g/ha): 100%
- Ipomoea purpurea, herbicidal activity (Ipomoea purpurea [17]; application rate 1280 g/ha): 100%
- herbicidal activity on Setaria viridis (visual rating vs untreated controls) (Setaria viridis [18]; application rate 320 g/ha): 100%
- herbicidal activity on Setaria viridis (visual rating vs untreated controls) (Setaria viridis [18]; application rate 1280 g/ha): 100%
- herbicidal activity on Abutilon theophrasti (visual rating vs untreated controls) (Abutilon theophrasti [19]; application rate 320 g/ha): 100%
- herbicidal activity on Abutilon theophrasti (visual rating vs untreated controls) (Abutilon theophrasti [19]; application rate 1280 g/ha): 100%
- herbicidal activity on Amaranthus retroflexus (visual rating vs untreated controls) (Amaranthus retroflexus [20]; application rate 320 g/ha): 100%
- herbicidal activity on Amaranthus retroflexus (visual rating vs untreated controls) (Amaranthus retroflexus [20]; application rate 1280 g/ha): 100%
- Matricaria inodora, herbicidal activity (Matricaria inodora [21]; application rate 320 g/ha): 100%
- Matricaria inodora, herbicidal activity (Matricaria inodora [21]; application rate 1280 g/ha): 100%
- Polygonum convolvulus, herbicidal activity (Polygonum convolvulus [22]; application rate 320 g/ha): 100%
- Polygonum convolvulus, herbicidal activity (Polygonum convolvulus [22]; application rate 1280 g/ha): 100%
- Hordeum murinum, herbicidal activity (Hordeum murinum [23]): 100%
- Viola tricolor, herbicidal activity (Viola tricolor [24]; application rate 320 g/ha): 100%
- Viola tricolor, herbicidal activity (Viola tricolor [24]; application rate 1280 g/ha): 100%
- Avena fatua, herbicidal activity (Avena fatua [25]; application rate 320 g/ha): 90%
- Avena fatua, herbicidal activity (Avena fatua [25]; application rate 1280 g/ha): 100%
- herbicidal activity on Alopecurus myosuroides (visual rating vs untreated controls) (Alopecurus myosuroides [26]; application rate 320 g/ha): 90%
- herbicidal activity on Alopecurus myosuroides (visual rating vs untreated controls) (Alopecurus myosuroides [26]; application rate 1280 g/ha): 100%

SMILES: CCC(=O)OC1C(C)=CC(=O)N1c1cc(C(C)(C)C)on1 (stereo not drawn) [I.5-162]
- Veronica persica, herbicidal activity (Veronica persica [1]): 100%
- Echinochloa crus-galli, herbicidal activity (Echinochloa crus-galli [2]): 100%
- Stellaria media, herbicidal activity (Stellaria media [3]; application rate 320 g/ha): 100%
- Stellaria media, herbicidal activity (Stellaria media [3]; application rate 1280 g/ha): 100%
- Ipomoea purpurea, herbicidal activity (Ipomoea purpurea [4]): 90%
- Lolium rigidum, herbicidal activity (Lolium rigidum): 90%
- Setaria viridis, herbicidal activity (Setaria viridis [5]; application rate 320 g/ha): 100%
- Setaria viridis, herbicidal activity (Setaria viridis [5]; application rate 1280 g/ha): 100%
- Abutilon theophrasti, herbicidal activity (Abutilon theophrasti [6]; application rate 320 g/ha): 100%
- Abutilon theophrasti, herbicidal activity (Abutilon theophrasti [6]; application rate 1280 g/ha): 100%
- Amaranthus retroflexus, herbicidal activity (Amaranthus retroflexus [7]; application rate 320 g/ha): 100%
- Amaranthus retroflexus, herbicidal activity (Amaranthus retroflexus [7]; application rate 1280 g/ha): 100%
- Matricaria inodora, herbicidal activity (Matricaria inodora [8]; application rate 320 g/ha): 100%
- Matricaria inodora, herbicidal activity (Matricaria inodora [8]; application rate 1280 g/ha): 100%
- Polygonum convolvulus, herbicidal activity (Polygonum convolvulus [9]; application rate 320 g/ha): 100%
- Polygonum convolvulus, herbicidal activity (Polygonum convolvulus [9]; application rate 1280 g/ha): 100%
- Hordeum murinum, herbicidal activity (Hordeum murinum [10]; application rate 1280 g/ha): 100%
- Viola tricolor, herbicidal activity (Viola tricolor [11]; application rate 320 g/ha): 100%
- Viola tricolor, herbicidal activity (Viola tricolor [11]; application rate 1280 g/ha): 100%
- Avena fatua, herbicidal activity (Avena fatua [12]; application rate 320 g/ha): 90%
- Avena fatua, herbicidal activity (Avena fatua [12]; application rate 1280 g/ha): 90%
- Alopecurus myosuroides, herbicidal activity (Alopecurus myosuroides [13]; application rate 320 g/ha): 90%
- Alopecurus myosuroides, herbicidal activity (Alopecurus myosuroides [13]; application rate 1280 g/ha): 90%
- herbicidal activity on Veronica persica (visual rating vs untreated controls) (Veronica persica [14]): 100%
- herbicidal activity on Echinochloa crus-galli (visual rating vs untreated controls) (Echinochloa crus-galli [15]; application rate 1280 g/ha): 100%
- Stellaria media, herbicidal activity (Stellaria media [16]; application rate 320 g/ha): 100%
- Stellaria media, herbicidal activity (Stellaria media [16]; application rate 1280 g/ha): 100%
- Ipomoea purpurea, herbicidal activity (Ipomoea purpurea [17]; application rate 1280 g/ha): 90%
- herbicidal activity on Setaria viridis (visual rating vs untreated controls) (Setaria viridis [18]; application rate 320 g/ha): 100%
- herbicidal activity on Setaria viridis (visual rating vs untreated controls) (Setaria viridis [18]; application rate 1280 g/ha): 100%
- herbicidal activity on Abutilon theophrasti (visual rating vs untreated controls) (Abutilon theophrasti [19]; application rate 320 g/ha): 100%
- herbicidal activity on Abutilon theophrasti (visual rating vs untreated controls) (Abutilon theophrasti [19]; application rate 1280 g/ha): 100%
- herbicidal activity on Amaranthus retroflexus (visual rating vs untreated controls) (Amaranthus retroflexus [20]; application rate 1280 g/ha): 100%
- Matricaria inodora, herbicidal activity (Matricaria inodora [21]; application rate 1280 g/ha): 100%
- Polygonum convolvulus, herbicidal activity (Polygonum convolvulus [22]; application rate 320 g/ha): 100%
- Polygonum convolvulus, herbicidal activity (Polygonum convolvulus [22]; application rate 1280 g/ha): 100%
- Hordeum murinum, herbicidal activity (Hordeum murinum [23]): 100%
- Viola tricolor, herbicidal activity (Viola tricolor [24]; application rate 320 g/ha): 100%
- Viola tricolor, herbicidal activity (Viola tricolor [24]; application rate 1280 g/ha): 100%
- Avena fatua, herbicidal activity (Avena fatua [25]; application rate 1280 g/ha): 100%
- herbicidal activity on Alopecurus myosuroides (visual rating vs untreated controls) (Alopecurus myosuroides [26]; application rate 320 g/ha): 90%
- herbicidal activity on Alopecurus myosuroides (visual rating vs untreated controls) (Alopecurus myosuroides [26]; application rate 1280 g/ha): 100%
